Results from US20220017483A1, “AMINOPYRIDINE COMPOUND, PREPARATION METHOD THEREFOR AND USE THEREOF” (SICHUAN-KELUN-BIOTECH BIOPHARMACEUTICAL CO., LTD, priority 2018, published 2022).
Like-named read-outs stand apart in the source and are kept apart here.

Assays:
[1] = target: T1, A1 receptor cell membrane (human origin) (Homo sapiens, UniProt P30542); experiment: Competitive inhibition constant (Ki) for adenosine A1 receptor, [3H]-DPCPX radioligand binding; conditions: [3H]-DPCPX 1.0 nM
T1 construct: purchased PerkinElmer ES-010-M400UA
T1 sequence (P30542 1-326): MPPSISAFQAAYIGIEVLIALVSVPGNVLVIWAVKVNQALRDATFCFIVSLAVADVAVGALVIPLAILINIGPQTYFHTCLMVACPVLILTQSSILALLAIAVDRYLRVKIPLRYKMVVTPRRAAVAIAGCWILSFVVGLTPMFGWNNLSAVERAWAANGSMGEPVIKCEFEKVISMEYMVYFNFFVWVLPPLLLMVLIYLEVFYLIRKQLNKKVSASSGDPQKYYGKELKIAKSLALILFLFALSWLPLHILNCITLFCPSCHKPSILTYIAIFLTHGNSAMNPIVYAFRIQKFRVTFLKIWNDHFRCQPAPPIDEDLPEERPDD
Procedure: Experimental Example 1: Determination of the Competitive Inhibition Constant (Ki) for Adenosine A1 and A2a Receptors
[^3H]-DPCPX: PerkinElmer, NET974250UC
A1 receptor cell membrane (human origin): PerkinElmer, ES-010-M400UA
A1 test buffer: 25 mM HEPES, 5 mM MgCl2, 1 mM CaCl2, 100 mM NaCl, pH7.4
A1 washing buffer: 25 mM HEPES, 5 mM MgCl2, 1 mM CaCl2, 100 mM NaCl, pH7.4
(§1) The A1 receptor cell membrane was diluted to 0.025 μg/μl with the A1 test buffer and the A2a receptor cell membrane was diluted to 0.05 μg/μl with the A2a test buffer to obtain an A1 receptor cell membrane dilution and an A2a receptor cell membrane dilution.
(§2) The tested compound and CGS15943 were gradiently diluted with DMSO. 1 μl test compound, high-value control (0.5% DMSO), low-value control (1000 nM CGS15943) were added to a 96-well plate, wherein each well was added with 100 μl A1 receptor cell membrane dilution (containing 2.5 μg cell membrane) to obtain an A1 detection plate. Through the same steps, 100 μl A2a receptor cell membrane dilution (containing 5.0 μg cell membrane) was added to each well of a 96-well plate to obtain an A2a detection plate.
100 μl of radioisotope-labelled ligand [^3H]-DPCPX (diluted in A1 test buffer, working concentration 1.0 nM) was added to the A1 detection plate, and 100 μl of radioisotope-labelled ligand [^3H]-CGS-21680 (diluted in A2a test buffer, working concentration 6.0 nM) was added to the A2a detection plate. The A1 and A2a detection plates were sealed with a tap, and incubated at room temperature for 1 h and 2 h, respectively.
(§3) Unifilter-96 GF/C filter plate was prepared. The Unifilter-96 GF/C filter plate was added with 50 μl 0.3% PEI in each well, and incubated at room temperature for no less than 0.5 h.
(§4) After the incubation, the reaction solutions in the A1 detection plate and the A2a detection plate were transferred to two Unifilter-96 GF/C filter plates. The filter plates were washed with the corresponding pre-cooled washing buffers, then oven dried. After sealing the bottom of the filter plates, 50 μl of Microscint 20 cocktail scintillation fluid was added. After sealing the top of the filter plates, the plates were read in the counter MicroBeta2 Reader.
(§5) Data analysis: The inhibition rate was calculated according to the following formula:
(§6) Inhibition rate %=100−(the signal value of the tested wells−the signal average of the low-value control)/(the signal average of the high-value control−the signal average of the low-value control)*100.
(§7) IC50 was fitted by EXCEL XLfit. The competitive inhibition constant (Ki) was calculated according to the formula: Ki=IC50/(1+the concentration of the isotope-labelled ligands/Kd); Kd is the dissociation constant of the isotope-labeled ligands.

[2] = target: T2, A2a receptor cell membrane (human origin) (Homo sapiens, UniProt P29274); experiment: Competitive inhibition constant (Ki) for adenosine A2a receptor, [3H]-CGS-21680 radioligand binding; conditions: for Ki(A1)/Ki(A2a): selectivity ratio A1 over A2a
T2 construct: purchased PerkinElmer RBHA2AM400UA
T2 sequence (P29274 whole entry): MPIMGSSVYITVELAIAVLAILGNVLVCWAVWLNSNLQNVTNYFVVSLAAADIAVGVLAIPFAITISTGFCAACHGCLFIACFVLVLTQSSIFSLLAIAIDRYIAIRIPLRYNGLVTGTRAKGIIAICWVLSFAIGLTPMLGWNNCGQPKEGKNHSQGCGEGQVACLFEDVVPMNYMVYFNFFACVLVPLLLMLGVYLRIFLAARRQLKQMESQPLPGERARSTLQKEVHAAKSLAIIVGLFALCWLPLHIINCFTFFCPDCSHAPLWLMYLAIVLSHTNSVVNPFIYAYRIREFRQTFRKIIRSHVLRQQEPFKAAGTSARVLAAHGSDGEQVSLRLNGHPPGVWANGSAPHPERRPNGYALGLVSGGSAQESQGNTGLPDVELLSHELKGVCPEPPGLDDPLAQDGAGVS
Procedure: A2a receptor cell membrane (human origin): PerkinElmer, RBHA2AM400UA
A2a test buffer: 50 mM Tris-HCl, 10 mM MgCl2, 1 mM EDTA, pH7.4
as §1, §2
The A1 and A2a detection plates were sealed with a tap, and incubated at room temperature for 1 h and 2 h, respectively.
as §3, §4, §5, §6, §7

[3] = Pharmacokinetics in rats, intravenous injection (IV); format: in vivo; conditions: male, SD, rat, 1 mg/kg, plasma
Procedure: (§8) Experimental Example 2: Pharmacokinetics (PK) and Brain Tissue Distribution Study in Rats
(§9) The compounds of the present invention and control compound 2 were administered to male SD rats by intravenous injection (IV) and intragastric administration (PO) respectively to study the pharmacokinetic characteristics.
(§10) The compounds of the present invention and control compound 2
(§11) synthesized according to the prior art process) were administered by IV and PO. IV and PO dosages were 1 mg/kg and 5 mg/kg, respectively. The vehicle for the IV administration of the compounds of the present invention was a mixture of 5% DMSO:5% Solutol (polyethylene glycol-15 hydroxystearate):90% physiological saline; and the vehicle for the IV administration of control compound 2 was a mixture of 10% DMSO:10% Solutol (polyethylene glycol-15 hydroxystearate):80% physiological saline. The vehicle for the PO administration of the compounds was 0.5% MC (sodium methylcellulose). Blood was collected before IV administration (0 h), and at time points of 0.083, 0.25, 0.5, 1, 2, 4, 6, 8, 24 h or longer (for example, adding time points of 32 and 48 h) after IV administration; and blood was collected before PO administration (0 h), and at time points of 0.25, 0.5, 1, 2, 4, 6, 8, 24 h or longer (for example, adding time points of 32 and 48 h) after PO administration. EDTA.K2 was used for anticoagulation of the blood, and a plasma sample was obtained after centrifugation. Brain tissue homogenates were taken at 0.25, 0.5, 1, and 8 hours after PO administration (3 animals for each time point). The plasma samples and brain tissue homogenate samples were stored at −80° C. Plasma samples and brain tissue homogenates were subjected to analysis by LC-MS/MS, after protein precipitation. The pharmacokinetic parameters were calculated by using non-compartmental model with WinNonlin 6.3 software.

[4] = Pharmacokinetics and brain tissue distribution in rats, intragastric administration (PO); format: in vivo, male SD rats; conditions: rat; for AUC(0-t) / bioavailability: male, SD, plasma; for AUC(0-t) / capability to penetrate the blood-brain barrier / exposure to brain tissue (in words) / AUClast (brain) / Plasma AUClast/Brain AUClast: PO, 5 mg/kg; for AUC(0-t): read-out: AUClast (plasma); for AUClast (brain): brain tissue homogenate; for bioavailability: po, orally administered 5 mg/kg compared to intravenous 1 mg/kg
Procedure: as §8, §9, §10, §11

[5] = human A2a receptor cell membrane, [3H]-CGS-21680 6.0 nM, read-out: Ki(A2a)

AUC(0-t) [3] | Cmax [3] | AUC(0-t) [4] | AUClast (brain) [4] | Ki [2, 5] | bioavailability [4] | Plasma AUClast/Brain AUClast [4] | Compound | Ki [1] | Ki [2] | Ki(A1)/Ki(A2a) [2] | capability to penetrate the blood-brain barrier / exposure to brain tissue (in words) [4]
2340 ng·h/mL | 1340 ng/mL | 8010 ng·h/mL | 24.2 (h*ng/g, | 13.2 nM | 68.5% | 331/1 | Cc1ncnc2ccc(-c3cc(-c4cnn(CC(C)(C)O)c4)c(N)nc3-c3ccc(F)cc3)cc12 [Compound 21, 1-(4-(2-amino-6-(4-fluorophenyl)-5-(4-methylquinazolin-6-yl)-pyridin-3-yl)-1H-pyrazol-1-yl)-2-methylpropan-2-ol] | 1420 nM |  | 108.0 | 
518 ng·h/mL | 913 ng/mL | 1200 ng·h/mL | 1013 (h*ng/g, |  | 46.5% |  | Cc1ncnc2ccc(-c3nnc(N)nc3-c3ccc(F)cc3)cc12 [Control compound 2, reference compound] |  |  |  | significantly stronger

The next lines start with the compound.

Compound | AUC(0-t) [3] | Cmax [3] | AUC(0-t) [4] | AUClast (brain) [4] | Ki [2, 5] | bioavailability [4] | Plasma AUClast/Brain AUClast [4] | Ki [1] | Ki [2] | Ki(A1)/Ki(A2a) [2] | capability to penetrate the blood-brain barrier / exposure to brain tissue (in words) [4]
Cc1ncnc2ccc(-c3cc(-c4cnn(CCC(N)=O)c4)c(N)nc3-c3ccc(F)cc3)cc12 [Compound 20, 3-(4-(2-amino-6-(4-fluorophenyl)-5-(4-methylquinazolin-6-yl)-pyridin-3-yl)-1H-pyrazol-1-yl)propionamide] | 2530 ng·h/mL | 3330 ng/mL | 1900 ng·h/mL | undetectable |  |  |  | 963 nM | 14 nM | 68.8 | only very low exposure to brain tissue
Cc1ncnc2ccc(-c3cc(C(N)=O)c(N)nc3-c3ccc(F)cc3)cc12 [Compound 6, 2-amino-6-(4-fluorophenyl)-5-(4-methylquinazolin-6-yl)nicotinamide] | 6660 ng·h/mL | 1250 ng/mL | 24700 ng·h/mL | 337 (h*ng/g, | 3.4 nM | 73.9% | 73/1 | 2190 nM |  | 644.6 | 
CNC(=O)Cn1cc(-c2cc(-c3ccc4ncnc(C)c4c3)c(-c3ccc(F)cc3)nc2N)cn1 [Compound 19, 2-(4-(2-amino-6-(4-fluorophenyl)-5-(4-methylquinazolin-6-yl)-pyridin-3-yl)-1H-pyrazol-1-yl)-N-methylacetamide] | 3940 ng·h/mL | 2960 ng/mL | 18800 ng·h/mL | 24.2 (h*ng/g, | 9.9 nM | 95.2% | 776/1 | 513 nM |  | 51.8 | 
